According to patent US8541464B2, “Treatment of atrial fibrillation” (HUYA Biosciences International LLC, priority 2009, dated 2013):

What was measured:
IKr [1] = molecular target: T1, IKr (Oryctolagus cuniculus, UniProt Q8WNY2); assay: Ion channel profiling in isolated atrial cardiomyocytes; format: cell-based; conditions: Rabbit/atria isolated atrial cardiomyocytes
T1 construct: in isolated atrial cardiomyocytes; endogenous in cells; host or cells: isolated rabbit atrial cardiomyocytes

Fast Na [2] = assay: as above; format: cell-based; conditions: Rabbit/atria isolated atrial cardiomyocytes
[3] = system: ion channels in human atrial cardiomyocytes; conditions: sulcardine and its salts, in vitro, reported; cited from earlier work
Slow Na = molecular target: T2, Slow Na (Homo sapiens, UniProt Q14524); assay: Ion channel profiling in isolated atrial cardiomyocytes; format: cell-based; conditions: Human/atria isolated atrial cardiomyocytes
T2 construct: in isolated atrial cardiomyocytes; endogenous in cells; host or cells: isolated human atrial cardiomyocytes

IKach = assay: as above; format: cell-based; conditions: Rabbit/atria isolated atrial cardiomyocytes
Ito [4] = molecular target: T3, Ito (Homo sapiens, UniProt Q9UK17); assay: as above; format: cell-based; conditions: Human/atria isolated atrial cardiomyocytes
T3 construct: in isolated atrial cardiomyocytes; endogenous in cells; host or cells: isolated human atrial cardiomyocytes

rabbit ventricular wedge = conditions: sulcardine and salts; cited from earlier work
IKur = molecular target: T4, IKur (Homo sapiens, UniProt P22460); assay: Ion channel profiling in isolated atrial cardiomyocytes; format: cell-based; conditions: Human/atria isolated atrial cardiomyocytes
T4 construct: in isolated atrial cardiomyocytes; endogenous in cells; host or cells: isolated human atrial cardiomyocytes

L-Ca = molecular target: T5, L-Ca (Oryctolagus cuniculus, UniProt P15381); assay: as above; format: cell-based; conditions: Rabbit/atria isolated atrial cardiomyocytes
T5 construct: in isolated atrial cardiomyocytes; endogenous in cells; host or cells: isolated rabbit atrial cardiomyocytes

Fast Na [5] = molecular target: T6, Fast Na (Homo sapiens, UniProt Q14524); assay: as above; format: cell-based; conditions: Human/atria isolated atrial cardiomyocytes
T6 construct: in isolated atrial cardiomyocytes; endogenous in cells; host or cells: isolated human atrial cardiomyocytes

IKr [6] = molecular target: T7, IKr (Homo sapiens, UniProt Q12809); assay: as above; format: cell-based; conditions: Human/atria isolated atrial cardiomyocytes
T7 construct: in isolated atrial cardiomyocytes; endogenous in cells; host or cells: isolated human atrial cardiomyocytes

post-MI canine = conditions: sulcardine and salts; cited from earlier work
Ito [7] = assay: Ion channel profiling in isolated atrial cardiomyocytes; format: cell-based; conditions: Rabbit/atria isolated atrial cardiomyocytes
post-MI conscious canine = conditions: sulcardine and salts; cited from earlier work

T2 sequence (Q14524 whole entry): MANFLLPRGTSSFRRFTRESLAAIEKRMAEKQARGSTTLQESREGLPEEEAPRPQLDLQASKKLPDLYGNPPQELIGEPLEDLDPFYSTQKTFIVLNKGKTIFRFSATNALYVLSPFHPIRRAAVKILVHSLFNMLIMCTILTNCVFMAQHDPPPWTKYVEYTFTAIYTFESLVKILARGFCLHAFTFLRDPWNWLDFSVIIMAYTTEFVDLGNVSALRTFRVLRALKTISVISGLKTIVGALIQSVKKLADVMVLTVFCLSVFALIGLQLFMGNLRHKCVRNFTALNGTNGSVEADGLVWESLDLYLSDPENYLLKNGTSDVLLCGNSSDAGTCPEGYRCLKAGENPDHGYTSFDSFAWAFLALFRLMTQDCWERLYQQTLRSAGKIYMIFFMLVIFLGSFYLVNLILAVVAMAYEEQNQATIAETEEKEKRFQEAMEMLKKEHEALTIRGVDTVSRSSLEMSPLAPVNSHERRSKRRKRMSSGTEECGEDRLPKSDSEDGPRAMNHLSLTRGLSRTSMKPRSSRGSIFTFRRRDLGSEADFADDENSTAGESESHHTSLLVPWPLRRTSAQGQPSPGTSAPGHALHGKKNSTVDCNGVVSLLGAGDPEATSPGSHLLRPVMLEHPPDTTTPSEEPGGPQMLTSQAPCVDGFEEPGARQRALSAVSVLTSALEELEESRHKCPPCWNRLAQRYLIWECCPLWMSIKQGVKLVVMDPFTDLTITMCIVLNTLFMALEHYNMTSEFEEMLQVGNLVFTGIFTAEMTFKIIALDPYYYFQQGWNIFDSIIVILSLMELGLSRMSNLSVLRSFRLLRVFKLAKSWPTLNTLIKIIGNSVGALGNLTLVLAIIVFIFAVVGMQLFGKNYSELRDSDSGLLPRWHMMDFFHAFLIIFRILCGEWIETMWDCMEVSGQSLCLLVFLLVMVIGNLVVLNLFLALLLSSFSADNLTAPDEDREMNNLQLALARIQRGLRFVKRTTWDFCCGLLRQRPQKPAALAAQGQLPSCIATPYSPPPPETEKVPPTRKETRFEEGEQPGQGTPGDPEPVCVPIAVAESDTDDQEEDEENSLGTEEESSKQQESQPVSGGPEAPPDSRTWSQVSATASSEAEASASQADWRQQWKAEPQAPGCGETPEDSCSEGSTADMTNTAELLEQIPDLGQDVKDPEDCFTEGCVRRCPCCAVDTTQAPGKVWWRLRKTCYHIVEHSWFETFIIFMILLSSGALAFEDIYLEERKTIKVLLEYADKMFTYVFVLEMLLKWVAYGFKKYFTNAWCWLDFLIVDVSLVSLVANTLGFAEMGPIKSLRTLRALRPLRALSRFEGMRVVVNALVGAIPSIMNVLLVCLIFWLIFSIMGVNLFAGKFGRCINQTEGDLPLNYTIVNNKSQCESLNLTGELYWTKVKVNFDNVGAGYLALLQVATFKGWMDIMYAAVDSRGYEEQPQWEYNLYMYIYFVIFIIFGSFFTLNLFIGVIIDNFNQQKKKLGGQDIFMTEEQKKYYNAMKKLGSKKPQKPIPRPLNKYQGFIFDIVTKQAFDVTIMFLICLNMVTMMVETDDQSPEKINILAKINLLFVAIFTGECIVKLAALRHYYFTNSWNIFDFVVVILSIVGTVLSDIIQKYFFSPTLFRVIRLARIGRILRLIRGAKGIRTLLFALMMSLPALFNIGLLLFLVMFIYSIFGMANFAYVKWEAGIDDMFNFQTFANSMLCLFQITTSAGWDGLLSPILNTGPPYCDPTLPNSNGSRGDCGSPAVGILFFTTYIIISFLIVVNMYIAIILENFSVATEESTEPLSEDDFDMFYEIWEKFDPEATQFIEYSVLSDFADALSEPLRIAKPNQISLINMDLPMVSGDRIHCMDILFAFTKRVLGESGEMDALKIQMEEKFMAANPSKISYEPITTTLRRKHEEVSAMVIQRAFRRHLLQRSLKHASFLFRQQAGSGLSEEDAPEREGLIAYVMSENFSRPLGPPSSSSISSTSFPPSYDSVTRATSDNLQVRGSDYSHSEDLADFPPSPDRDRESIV
T6 sequence (Q14524 whole entry): as above
T3 sequence (Q9UK17 whole entry): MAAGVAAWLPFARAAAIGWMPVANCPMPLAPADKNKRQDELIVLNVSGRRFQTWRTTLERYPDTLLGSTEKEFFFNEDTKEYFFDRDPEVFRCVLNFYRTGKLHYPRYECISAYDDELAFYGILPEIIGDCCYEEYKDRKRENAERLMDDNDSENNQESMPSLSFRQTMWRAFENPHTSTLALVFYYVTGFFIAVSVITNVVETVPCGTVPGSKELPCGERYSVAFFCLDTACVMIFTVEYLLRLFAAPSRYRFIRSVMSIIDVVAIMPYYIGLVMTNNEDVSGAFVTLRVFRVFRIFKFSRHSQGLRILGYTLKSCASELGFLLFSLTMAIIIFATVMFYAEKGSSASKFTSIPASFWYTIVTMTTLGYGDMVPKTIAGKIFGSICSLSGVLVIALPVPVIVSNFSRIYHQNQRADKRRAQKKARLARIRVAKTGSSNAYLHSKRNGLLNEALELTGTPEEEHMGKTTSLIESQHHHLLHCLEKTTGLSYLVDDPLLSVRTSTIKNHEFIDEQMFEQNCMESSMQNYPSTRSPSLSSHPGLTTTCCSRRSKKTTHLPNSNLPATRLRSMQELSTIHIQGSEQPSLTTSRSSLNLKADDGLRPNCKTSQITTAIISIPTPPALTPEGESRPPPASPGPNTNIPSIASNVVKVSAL
T3 sequence (Q9NS61 whole entry partner): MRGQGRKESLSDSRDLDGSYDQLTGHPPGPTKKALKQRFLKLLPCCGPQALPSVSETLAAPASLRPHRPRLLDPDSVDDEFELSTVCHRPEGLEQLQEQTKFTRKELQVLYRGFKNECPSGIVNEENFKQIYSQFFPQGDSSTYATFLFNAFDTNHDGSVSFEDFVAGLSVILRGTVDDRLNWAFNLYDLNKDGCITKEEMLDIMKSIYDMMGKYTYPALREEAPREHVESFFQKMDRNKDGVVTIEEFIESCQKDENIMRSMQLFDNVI

In the case of “4-methoxy-N-(3,5-bis-(1-pyrrolidinyl)-4-hydroxy benzyl)benzene sulfonamide [sulcardine]”, the IC50 (IKr [1]) is given as 61 µM, the IC50 (Fast Na [2]) is given as 34 µM and the IC50 [3] is given as 26 to 100 µM. The IC50 (Slow Na) was 45 µM, the IC50 (IKach) was 130 µM and the IC50 (Ito [4]) was 100 µM. For the same substance, the pro-arrhythmic activity (rabbit ventricular wedge) was “lack significant pro-arrhythmic activity”, the IC50 (IKur) was greater than 190 µM and the IC50 (L-Ca) was 54 µM. For the same substance, the IC50 (Fast Na [5]) was 26 µM, the IC50 (IKr [6]) was 40 µM and the defibrillation threshold (post-MI canine) was “do not increase defibrillation threshold”. For the same substance, the IC50 (Ito [7]) was 26 µM and the pro-arrhythmic activity (post-MI conscious canine) was “lack significant pro-arrhythmic activity”.
